In patent publication US9593149B2, “Amylin and calcitonin receptor agonist” (Novo Nordisk A/S, priority 2014, dated 2017):
Peptide text beside a SMILES is read from it.

Legend:
[1] = biological target: T1, human amylin receptor (human calcitonin receptor + human RAMP3), BHK tk'ts 13 cells (Homo sapiens, UniProt O60896+P30988); assay: Assay (Va) binding to the human amylin receptor (whole cell); details: read-out: hAmylin-R binding IC50
T1 construct: expressed in transfected cells; host or cells: BHK tk'ts 13
T1 sequence (O60896 24-148, one chain of several): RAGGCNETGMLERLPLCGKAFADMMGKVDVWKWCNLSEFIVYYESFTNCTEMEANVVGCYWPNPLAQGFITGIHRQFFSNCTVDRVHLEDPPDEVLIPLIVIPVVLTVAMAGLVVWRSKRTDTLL
Experimental: The day before the assay the cells were Seeded into Poly-D-Lysin coated 384W Opaque White, BD BioCoat plates (10000 cells/well) and Incubated overnight at 37° C., 5% CO2, 95% humidity.

[2] = biological target: T2, human amylin 3(a) receptor (human calcitonin receptor + RAMP-3), BHK570 cells (Homo sapiens, UniProt O60896+P30988); assay: Assay (II)b functional CRE-luciferase assay without albumin, human amylin receptor; type: cell-based; details: Tested without HSA; read-out: hAmylin-R funct. EC50
T2 construct: host or cells: BHK570
T2 sequence (O60896 24-148, one chain of several): as above
Excerpt: (§1) Assay(II)b—Human Calcitonin and Amylin Receptor Assay without Albumin
(§2) 1. Luciferase Assay Outline
(§3) Activation of calcitonin and amylin (co-expression of calcitonin receptor and receptor activity modifying proteins (RAMP)) receptors lead to increased intracellular concentrations of cAMP. Consequently, transcription is activated by promoters containing multiple copies of the cAMP response element (CRE). It is thus possible to measure amylin activity by the use of a CRE luciferase reporter gene introduced into BHK cells also expressing calcitonin or amylin receptors.
(§4) 2. Construction of Calcitonin (a)—and Amylin 3(a)—Receptor/CRE-Luc Cell Line.
(§5) A BHK570 cell line was stably transfected with the human calcitonin receptor and a CRE-responsive luciferase reporter gene (Hollex-1 cell line, obtained from ZymoGenetics described in U.S. Pat. No. 5,622,839). The cell line was further transfected with RAMP-3, using standard methods. This turns the calcitonin receptor into an amylin 3(a) receptor. Methotrexate, Neomycin, and Hygromycin are selection markers for luciferase, the calcitonin receptor, and RAMP-3, respectively. To prepare the batches of frozen cells used in the luciferase assay described in the section below, the cells were cultured in growth medium (DMEM with 10% FBS, 1% Pen/Strep and 1 mM Napyruvate). […] Cells at approximately 80-90% confluence were washed with PBS and loosened from the plates with Versene. After centrifugation (2 min, 1300 rpm, in a Centrion Scientific centriuge C2 series with a BRK 5510 rotor head), the cell pellet was dissolved in 10% DMSO, 30% FBS and 60% growth medium and frozen (−80° C.) until utilization.
(§6) The day before the experiment, BHK calcitonin (a) receptor- or amylin 3(a)-receptor/CRE-luc cells were thawed, washed twice, and seeded in 40 μl growth medium on white 384 well culture plates (4.000 cells/well). On the assay day, the cells were washed 3 times in assay media (Dulbecco media W/o phenol red, 500 ml (Gibco, 11880-028); 0.1% ovalbumin; 10 mM Hepes pH 7.4; 1× Glutamin; 1% Pen/Strep). Then, 30 μl/well of sample diluted in assay buffer was added. After 3 hours of incubation at 37° C. and 5% CO2, the reaction was terminated by adding 30 μl/well SteadyLite Plus™. The plates were shaken at 300 rpm for 5 min at RT. Then, the plates were sealed and incubated at room temperature for 30 minutes. Finally, luminescence was tested on a TopCounter (Packard) in SPC (single photon counting) mode.
(§7) Additional Comment Regarding Use of Data Retrieved Via this Method
(§8) For the same reasons, measurements made in Assay IIa should not be compared in Assay IIb.

[3] = biological target: T3, human calcitonin (a) receptor, BHK570 cells (Homo sapiens, UniProt P30988); assay: Assay (II)b functional CRE-luciferase assay without albumin, human calcitonin receptor; type: cell-based; details: Tested without HSA; read-out: hCTR funct. EC50
T3 construct: host or cells: BHK570
T3 sequence (P30988 25-474): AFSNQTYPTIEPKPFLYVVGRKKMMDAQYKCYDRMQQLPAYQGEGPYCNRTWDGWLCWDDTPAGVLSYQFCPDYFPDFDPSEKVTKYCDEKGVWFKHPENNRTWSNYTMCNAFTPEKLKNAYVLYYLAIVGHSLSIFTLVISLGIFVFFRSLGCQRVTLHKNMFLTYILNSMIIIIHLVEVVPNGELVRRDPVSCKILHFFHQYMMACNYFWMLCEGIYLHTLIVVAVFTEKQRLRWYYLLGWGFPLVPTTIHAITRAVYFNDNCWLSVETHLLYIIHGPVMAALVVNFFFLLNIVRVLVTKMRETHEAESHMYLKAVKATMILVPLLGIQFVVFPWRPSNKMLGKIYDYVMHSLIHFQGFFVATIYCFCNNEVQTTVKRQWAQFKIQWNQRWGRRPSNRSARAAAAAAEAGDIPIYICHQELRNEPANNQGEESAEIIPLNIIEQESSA
Excerpt: as §1, §2, §3, §4, §5, §6, §7, §8

IC50 [1] [pM]	EC50 [2] [pM]	EC50 [3] [pM]	SMILES
5100	14	3	CC(C)C[C@H](NC(=O)[C@H](C)NC(=O)[C@H](C)NC(=O)[C@@H](NC(=O)[C@H](CO)NC(=O)[C@H](CC(C)C)NC(=O)[C@H](CCC(=O)O)NC(=O)[C@H](CO)NC(=O)[C@H](C)N)[C@@H](C)O)C(=O)NCC(=O)N[C@@H](Cc1c[nH]cn1)C(=O)N[C@@H](CC(C)C)C(=O)N[C@@H](CO)C(=O)N[C@@H](C)C(=O)N[C@@H](CCC(=O)O)C(=O)N[C@@H](CC(C)C)C(=O)N[C@@H](Cc1c[nH]cn1)C(=O)N[C@@H](CCC(=O)O)C(=O)N[C@@H](CC(C)C)C(=O)N[C@@H](C)C(=O)N[C@H](C(=O)N[C@@H](CC(C)C)C(=O)N1CCC[C@H]1C(=O)N[C@@H](CCCNC(=N)N)C(=O)N[C@H](C(=O)N[C@@H](CCC(=O)O)C(=O)N[C@H](C(=O)NCC(=O)N[C@@H](CO)C(=O)NCC(=O)N[C@@H](CO)C(=O)N1CCC[C@H]1C(N)=O)[C@@H](C)O)[C@@H](C)O)[C@@H](C)O [72bb, H—ASELSTAALGHLSAELHELATLPRTETGSGSP—NH2] (H-ASELSTAALGHLSAELHELATLPRTETGSGSP-NH2)
71400			CC(C)C[C@H](NC(=O)[C@H](CCCNC(=N)N)NC(=O)CNC(=O)[C@H](CC(C)C)NC(=O)[C@@H](NC(=O)[C@H](C)NC(=O)[C@@H](NC(=O)[C@@H](NC(=O)[C@H](CC(C)C)NC(=O)[C@H](CCC(=O)O)NC(=O)[C@H](CO)NC(=O)[C@H](C)N)[C@@H](C)O)[C@@H](C)O)C(C)C)C(=O)N[C@@H](CCC(=O)O)C(=O)N[C@@H](C)C(=O)N[C@@H](CCC(=O)O)C(=O)N[C@@H](CC(C)C)C(=O)N[C@@H](Cc1c[nH]cn1)C(=O)N[C@@H](CCC(=O)O)C(=O)N[C@@H](CC(C)C)C(=O)N[C@H](C(=O)N[C@H](C(=O)N[C@@H](CC(C)C)C(=O)N1CCC[C@H]1C(=O)N[C@@H](CCCNC(=N)N)C(=O)N[C@H](C(=O)N[C@@H](CCC(=O)O)C(=O)N[C@H](C(=O)NCC(=O)N[C@H](C(=O)NCC(=O)N[C@H](C(=O)N1CCC[C@H]1C(N)=O)[C@@H](C)O)[C@@H](C)O)[C@@H](C)O)[C@@H](C)O)[C@@H](C)O)[C@@H](C)O [106bb, H—ASELTTAVLGRLEAELHELTTLPRTETGTGTP—NH2] (H-ASELTTAVLGRLEAELHELTTLPRTETGTGTP-NH2)
982	7	2	CC(C)C[C@H](NC(=O)[C@H](CCC(=O)O)NC(=O)[C@H](Cc1c[nH]cn1)NC(=O)[C@H](CC(C)C)NC(=O)[C@H](CCC(=O)O)NC(=O)[C@H](C)NC(=O)[C@H](CO)NC(=O)[C@H](CC(C)C)NC(=O)[C@H](CCCNC(=N)N)NC(=O)CNC(=O)[C@H](CC(C)C)NC(=O)[C@@H](NC(=O)[C@H](C)NC(=O)[C@@H](NC(=O)[C@H](CO)NC(=O)[C@@H](NC(=O)[C@H](CCC(=O)O)NC(=O)[C@H](CO)NC(=O)[C@H](C)N)C(C)C)[C@@H](C)O)C(C)C)C(=O)N[C@@H](C)C(=O)N[C@H](C(=O)N[C@@H](CC(C)C)C(=O)N1CCC[C@H]1C(=O)N[C@@H](CCCNC(=N)N)C(=O)N[C@H](C(=O)N[C@@H](CCC(=O)O)C(=O)N[C@H](C(=O)NCC(=O)N[C@@H](CO)C(=O)NCC(=O)N[C@@H](CO)C(=O)N1CCC[C@H]1C(N)=O)[C@@H](C)O)[C@@H](C)O)[C@@H](C)O [86bb, H—ASEVSTAVLGRLSAELHELATLPRTETGSGSP—NH2] (H-ASEVSTAVLGRLSAELHELATLPRTETGSGSP-NH2)
	5	4	CC(C)C[C@H](NC(=O)CNC(=O)[C@H](CO)NC(=O)[C@H](C)N)C(=O)N[C@@H](CO)C(=O)N[C@H](C(=O)N[C@@H](C)C(=O)N[C@H](C(=O)N[C@@H](CC(C)C)C(=O)NCC(=O)N[C@@H](CCCNC(=N)N)C(=O)N[C@@H](CC(C)C)C(=O)N[C@@H](CO)C(=O)N[C@@H](CCC(N)=O)C(=O)N[C@@H](CCC(=O)O)C(=O)N[C@@H](CC(C)C)C(=O)N[C@@H](Cc1c[nH]cn1)C(=O)N[C@@H](CCC(=O)O)C(=O)N[C@@H](CC(C)C)C(=O)N[C@@H](CCC(N)=O)C(=O)N[C@H](C(=O)N[C@@H](Cc1ccc(O)cc1)C(=O)N1CCC[C@H]1C(=O)N[C@@H](CCCNC(=N)N)C(=O)N[C@H](C(=O)N[C@@H](CCC(=O)O)C(=O)N[C@H](C(=O)NCC(=O)N[C@@H](CO)C(=O)NCC(=O)N[C@H](C(=O)N[C@@H](Cc1ccc(O)cc1)C(N)=O)[C@@H](C)O)[C@@H](C)O)[C@@H](C)O)[C@@H](C)O)[C@@H](C)O)[C@@H](C)O [124bb, [des1, 4G, 9T, 15Q, 21Q, 23Y, 30S, 31G, 32T, 33Y]mimylin] (H-ASGLSTATLGRLSQELHELQTYPRTETGSGTY-NH2; N-terminus and C-terminus assumed)
	8	4	CC(C)C[C@H](NC(=O)CNC(=O)[C@H](CO)NC(=O)[C@H](C)N)C(=O)N[C@@H](CO)C(=O)N[C@H](C(=O)N[C@@H](C)C(=O)N[C@H](C(=O)N[C@@H](CC(C)C)C(=O)NCC(=O)N[C@@H](CCCNC(=N)N)C(=O)N[C@@H](CC(C)C)C(=O)N[C@@H](CO)C(=O)N[C@@H](CCC(N)=O)C(=O)N[C@@H](CCC(=O)O)C(=O)N[C@@H](CC(C)C)C(=O)N[C@@H](Cc1c[nH]cn1)C(=O)N[C@@H](CCC(=O)O)C(=O)N[C@@H](CC(C)C)C(=O)N[C@@H](CCC(N)=O)C(=O)N[C@H](C(=O)N[C@@H](Cc1ccc(O)cc1)C(=O)N1CCC[C@H]1C(=O)N[C@@H](CCCNC(=N)N)C(=O)N[C@H](C(=O)N[C@@H](CCC(=O)O)C(=O)N[C@H](C(=O)NCC(=O)N[C@@H](CO)C(=O)NCC(=O)N[C@H](C(=O)N[C@@H](Cc1ccc(O)cc1)C(N)=O)[C@@H](C)O)[C@@H](C)O)[C@@H](C)O)[C@@H](C)O)C(C)C)[C@@H](C)O [118bb, [des1, 4G, 9V, 15Q, 21Q, 23Y, 30S, 31G, 32T, 33Y]mimylin]
20200	46	9	CC(C)C[C@H](NC(=O)[C@H](CCC(=O)O)NC(=O)[C@H](Cc1c[nH]cn1)NC(=O)[C@H](CC(C)C)NC(=O)[C@H](CCC(=O)O)NC(=O)[C@H](C)NC(=O)[C@H](CO)NC(=O)[C@H](CC(C)C)NC(=O)[C@H](CCCNC(=N)N)NC(=O)CNC(=O)[C@H](CC(C)C)NC(=O)[C@@H](NC(=O)[C@H](C)NC(=O)[C@@H](NC(=O)[C@@H](NC(=O)[C@H](CC(C)C)NC(=O)[C@H](CCC(=O)O)NC(=O)[C@H](CO)NC(=O)[C@H](C)N)[C@@H](C)O)[C@@H](C)O)C(C)C)C(=O)N[C@@H](C)C(=O)N[C@H](C(=O)N[C@@H](CC(C)C)C(=O)N1CCC[C@H]1C(=O)N[C@@H](CCCNC(=N)N)C(=O)N[C@H](C(=O)N[C@@H](CCC(=O)O)C(=O)N[C@H](C(=O)NCC(=O)N[C@H](C(=O)NCC(=O)N[C@H](C(=O)N1CCC[C@H]1C(N)=O)[C@@H](C)O)[C@@H](C)O)[C@@H](C)O)[C@@H](C)O)[C@@H](C)O [95bb, H—ASELTTAVLGRLSAELHELATLPRTETGTGTP—NH2] (H-ASELTTAVLGRLSAELHELATLPRTETGTGTP-NH2)
